Experimental findings from publication PMC7913925, “Design and Evaluation of a Polypeptide That Mimics the Integrin Binding Site for EDA Fibronectin to Block Profibrotic Cell Activity” (International Journal of Molecular Sciences, 2021) are described below.

Assay [1] addresses FN-EDA (peptide sharing sequence with the C-C′ loop of EDA-FN) (Homo sapiens, UniProt P02751). In words: Isothermal calorimetry, AF38Pep with FN-EDA. The settings on record: 25 °C, pH 7. It counts as binding. The protocol:
Custom designed peptides were resuspended in sterile-filtered HEPES buffered saline (140 mM NaCl, 1.5 mM Na2HPO4, 50 mM HEPES; pH 7). The larger EDA-FN binding peptide was diluted to 15 µM, degassed and added to the calorimetry chamber well. Three smaller test peptides (fibronectin EDA-peptide, FN-EDA; fibronectin RGD-peptide, FN-RGD and collagen I RGD-peptide, COL-RGD) were diluted to 300 µM, degassed and each was separately loaded into the calorimetry injection needle. The chamber well temperature was kept consistent at 25 °C. Blank buffer was used to replace either the well peptide or the injection needle peptide to account for background heat generation. Isothermal titration calorimetry was performed using a MicroCal iTC200 (Malvern Panalytical, Malvern, UK) and dissociation constant (KD) and association constant (KA) were calculated using the one set of sites model fitting (with number of binding sites assumed to be 1) in MicroCal Origin Software v8.5 (Malvern Panalytical).
A general note: ITC needs no label: the signal is the heat of the interaction.

The subject of assay [2] is α-SMA in NIH/3T3 dermal fibroblasts. Put plainly: Immunocytochemistry α-SMA stress fibers. It counts as cell-based, mouse. The note with it: 48 h, TGF-β1 10 ng/mL, AF38Pep 10 µg/mL. The protocol:
Cells were grown to 40% confluence in 8-well glass chamber slides (Nunc, Thermo Fisher Scientific), prior to growth arrest and treatment. Cells were washed with PBS before fixation in 4% paraformaldehyde for 10 min at room temperature. Next, cells were permeabilized with 0.1% (v/v) Triton X-100 in PBS for 10 min at room temperature. For visualization of ECM, cells were fixed with 100% ice-cold methanol for 8 min at −20 °C. Slides were washed with PBS and blocked with 1% goat serum (TBD Science, Tianjin, China) for 30 min before washing with 0.1% (w/v) BSA in PBS. Subsequently, slides were incubated with monoclonal mouse anti-α-SMA antibody (Sigma-Aldrich, 1:50) diluted in 0.1% BSA-PBS, overnight at 4 °C. After further wash steps, slides were incubated with goat anti-mouse IgG CF-488 secondary antibody (Abcam, 1:1000) in 0.1% BSA-PBS for 1 h at room temperature and under darkness. For F-actin visualization, after fixation and permeabilization; cells were incubated with phalloidin conjugated to FITC (Sigma-Aldrich) in 0.1% BSA-PBS, overnight at 4 °C. Cells were then mounted in DAPI Fluoromount-G (Thermo Fisher Scientific) and imaged using a Zeiss Axio Imager Z1 UV fluorescence microscope (Zeiss, Jena, Germany) and a Leica TCS SP5 laser scanning confocal microscope (Leica Biosystems, Baden-Württemberg, Germany).

For assay [3], the system named is pro-MMP2. Put plainly: Gelatinase zymography pro-MMP2. It counts as cell-based, mouse. The settings on record: 48 h, TGF-β1 10 ng/mL, AF38Pep 10 µg/mL, conditioned medium. The protocol: Conditioned media were collected from cells incubated with serum-free medium (SFM) alone, SFM containing 10 ng/mL TGF-β1, SFM containing 10 µg/mL AF38Pep, or SFM containing both 10 ng/mL TGF-β1 and 10 µg/mL AF38Pep. Conditioned medium was concentrated 10× by filtrating spin columns (Amicon Ultra-4 10 kDa MWCO, Merck Millipore) and protein was quantified by Micro BCA Protein Assay Kit (Thermo Fisher Scientific). A 1.5 mm thick 10% nonreducing acrylamide gel containing gelatin was prepared and 10 µg of sample in 5 × nonreducing buffer was loaded into the gel lanes. The gel was run at 100 V until the protein entered the stacking gel layer, then the voltage was increased to 150 V until the marker achieved resolved band separation. The gels were then washed twice for 30 min using wash buffer to remove SDS and renature the enzymes. Gels were further rinsed for 5–10 min in incubation buffer at 37 °C with agitation to activate the gelatinase reaction. Fresh incubation buffer was added, and the gels were incubated overnight at 37 °C. Gels were stained with staining solution containing Coomassie blue for between 30 min to 1 h, before rinsing with ddH2O and subsequent incubation with de-stain solution until bands could be observed. The gels were transferred to 2% acetic acid and rehydrated overnight for imaging by scanner.

In assay [4] the test system is Tgfb1 mRNA in NIH/3T3 fibroblasts. In words: qRT-PCR Tgfb1 mRNA. In kind it is cell-based, mouse. The settings on record: 48 h, TGF-β1 10 ng/mL. The protocol:
Reverse transcription (RT) and real-time quantitative PCR (qRT-PCR) were used to assess ACTA2/Acta2, Col1a1, Col3a1, Fn1, Eda-Fn1, Mmp9, Tgfb1, Ltbp1, Hic5, and Mrtfa mRNA expressions. Custom PCR primers were designed in-house (Table 2) and then synthesized by BGI (Beijing, China). Cells were grown in 6-well culture plates and washed with phosphate buffered saline (PBS) before lysis with TRIzon Reagent (CWBio, Beijing, China) and total RNA purification according to the manufacturer’s protocol. Reverse transcription was carried using the TransScript First-Strand cDNA Synthesis SuperMix kit according to the manufacturer’s protocol (TransGen, Beijing, China), using the random primer method for the initiation of cDNA synthesis. Nuclease-free H2O replaced the RNA sample to serve as a negative control for the reverse transcription reaction. For qRT-PCR, 10 µL 2× TransStart Top Green qPCR SuperMix was added to each well of a 96-well PCR plate containing 0.4 µL forward primer, 0.4 µL reverse primer, […], and nuclease-free water to a total volume of 20 µL. The qRT-PCR reaction was completed using a CFX96 Real-Time PCR Detection System (Bio-Rad Laboratories, Hercules, CA, USA). Amplification used the following parameters: 94 °C for 30 s, followed by 40 cycles of 94 °C for 5 s, 55 °C for 15 s, 72 °C for 10 s, and then a dissociation stage (melt-curve). […]
On the technique in general: Real-time PCR tracks product formation cycle by cycle.

Bridges are numbered along the chain shown (N, C = ends). Where no end group is shown, it is not given here.

Regarding “VMPYISTTPAKPCTSENCGNSWYGGFKSKNENKIYFIN (disulfide 13-18 (inferred)) [AF38Pep]”, the “ITC interaction (thermogram)” value in assay [1] was “there was a detectable interaction between AF38Pep and FN-EDA”. In addition, the “α-SMA protein expression (stress fibers)” value in assay [2] is on record as “inhibited”. For the same sequence, the pro-MMP2 gelatinase activity entry in assay [3] is “suppressed activity levels”. Also, the “TGF-β1 mRNA expression” value in assay [4] was “attenuated”.
